Experimental data as given in patent US5001234A, “Cyclic hydrocarbons with an aminoalkyl sidechain” (The Upjohn Company, priority 1989, dated 1991).
Structures can show the parent of a compound that is named as a salt.

These compounds were tested on KKA^y mice with spontaneous diabetes (assay: Blood glucose lowering in the KKA^y mouse). Conditions: compound 1 mg/gram of chow, nonfasting blood glucose on day 4 of treatment.
Format: in vivo
Set-up: key: Compounds that have been found to have a phospholipase A2 inhibitory or antidiabetic effect as determined by at least one of the above assays are indicated in the Examples and Preparations which follow by the notation "PLA2" and/or "diabetes" respectively; Compounds that have been found to have a phospholipase A2 inhibitory or antidiabetic effect as determined by at least one of the above assays are indicated in the Examples and Preparations which follow by the notation "PLA2" and/or "diabetes" respectively
Method: All KKA^y mice used for screening are produced and selected by methods previously outlined, T. Fujita et al., Diabetes, 32 804-10 (1983). Groups of 6 animals each are employed.
Pre-treatment nonfasting blood glucose (NFBG) samples are measured 5 days prior to the start of a screening run by previously described methodologies. These blood sugar values are used to place animals into groups with equal mean blood glucose concentrations and to eliminate any mice with a NFBG value <250 mg/dl. On day 0, compounds chosen to be run are incorporated into ground mouse chow (Purina 5015). Compounds are included at a rate of 1 mg/gram of chow. Generally, 300 g of drugs containing diet is prepared for each group. Mice receiving ground chow only are the negative control. Each screening run also uses ciglitazone (T. Fujita, et al., supra) as a positive control (0.5 to 1.0 mg/gram chow).
Initial body and food weights are taken on day 1. Food is placed in a crock which contains an adequate amount to last for the length of the study. In order to acclimate the mice from pelleted mouse chow to ground mouse chow, they are fed the ground chow for 9 days prior to use in the screen. On day 4 of treatment, a NFBG sample is again measured, as well as food and body weights. Food consumption measurements are used to determine an average mg/kg dose the mice received over the testing period, and to evaluate the compound's effect on food consumption.
3. Acceptance of a Screening Run and Determination of Activity
Acceptance and activity are determined by the following criteria:
This group must not show a significant change (p<0.05) from pre-to post-treatment. If there is a significant decrease in blood sugar the run is not valid.
This group must show a significant depression in blood sugar mean levels from pre- to post-treatment. A lack of activity in this group would also invalidate the run.
C. Negative Control vs. Positive Control
This contrast must be significant. It is a further assurance that both control groups performed as expected.
A compound's activity is based on several criteria:
(1) A significant decrease in blood sugar mean levels from pre- to post-treatment.
(2) Negative control vs. compound: This contrast allows one to determine if these groups are dissimilar, which is required for the compound to be considered active.

| SMILES | antidiabetic effect (notation "diabetes") |
| --- | --- |
| CN(CCc1ccc(S(N)(=O)=O)cc1)[C@H]1CC[C@H]2[C@@H]3CC[C@H]4CCCC[C@]4(C)[C@H]3CC[C@]12C [Example 6] | diabetes |
| COc1ccc2c(c1)C[C@@H](C)[C@@H]1[C@@H]2CC[C@]2(C)[C@@H](NCc3cccc(C(F)(F)F)c3)CC[C@@H]12 [Example 4, 3-Methoxy-7α-methyl-17β-[((3-trifluoromethyl)phenylmethyl)amino-estra-1,3,5(10)-triene Fumarate Hydrate] | diabetes |
| C=CCOc1ccc2c(c1)CC[C@@H]1[C@@H]2CC[C@]2(C)[C@@H](NCc3cccc(C(F)(F)F)c3)CC[C@@H]12 [Example 2, 3-Allyloxy-17β-[((3-trifluoromethyl)phenylmethyl)-amino-estra-1,3,5(10)-triene Fumarate] | diabetes |
| C[C@]12CC[C@@H]3c4ccc(OCCCO)cc4CC[C@H]3[C@@H]1CC[C@@H]2NCc1cccc(C(F)(F)F)c1 [Example 3] | diabetes |
| COc1cc2c(cc1C)[C@H]1CC[C@]3(C)[C@@H](NCCc4ccc(S(N)(=O)=O)cc4)CC[C@H]3[C@@H]1CC2 [Example 7] | diabetes |
| COc1ccc2c(c1)CC[C@@H]1[C@@H]2[C@@H](O)C[C@]2(C)[C@@H](NCc3cccc(C(F)(F)F)c3)CC[C@@H]12 [Example 5] | diabetes |
| C[C@]12CC=CC[C@@H]1CC[C@@H]1[C@@H]2CC[C@]2(C)[C@@H](NCCc3ccc(S(N)(=O)=O)cc3)CC[C@@H]12 [Example 8] | diabetes |
| COc1ccc2c(c1)CC[C@@H]1[C@@H]2CC[C@]2(C)[C@@H](NCc3cccs3)CC[C@@H]12 [Example 1, 3-Methoxy-17β-[(2-thienylmethyl)amino]-estra-1,3,5-(10)-triene] | diabetes |

The compounds below were run on phospholipase A2 (assay: Phospholipase A2 inhibition by at least one of two tests: inhibition of rat neutrophil aggregation, inhibition of hog pancreas PLA2). Conditions: found in at least one of the assays (rat neutrophil aggregation, FMLP; hog pancreas PLA2).
Format: biochemical
Set-up: key: Compounds that have been found to have a phospholipase A2 inhibitory or antidiabetic effect as determined by at least one of the above assays are indicated in the Examples and Preparations which follow by the notation "PLA2" and/or "diabetes" respectively; Compounds that have been found to have a phospholipase A2 inhibitory or antidiabetic effect as determined by at least one of the above assays are indicated in the Examples and Preparations which follow by the notation "PLA2" and/or "diabetes" respectively
Method: Inhibition of Rat Neutrophil Aggregation
1. Method for Thioglycolate Broth Preparation
Weigh sufficient thioglycolate medium, USP grade, to prepare a 5% w/v solution in sterile water. Heat the solution for 10 minutes on a boiling water bath. Remove and allow the solution to cool to 20°-25°. Inject 10±0.5 ml intraperitoneally into Sprague-Dawley rats as described below.
2. Method for Rat Peritoneal Leukocyte Collection
Six (6) Sprague-Dawley, pathogen free, female rats (230-270 grams) are injected intraperitoneally with 10.0±0.5 ml thioglyco. late broth. 5% w/v […] prior to sacrifice. After sacrifice by cervical dislocation, leukocytes accumulated in the peritoneal cavity are collected by injecting 30 ml of sterile 0.9% w/v sodium chloride intraperitoneally and vigorously massaging the abdomen to assure uniform dispersion of the cells within the carcass. Use a pasteur pipet to remove approximately 20 ml of fluid with suspended cells from a small incision through the abodominal wall. Collect the cell suspension in plastic culture tubes.
3. Washing and Resuspension of Cells for Aggregation
Centrifuge the cell suspensions isolated above for 10 minutes at 1000 rpm (Sorvall RC.3, HG-4L rotor, 25° C.). Discard the supernatant. Resuspend the cells evenly in 0.9% NaCl to original volume, centrifuge a second time for 10 minutes at 1000 rpm. Discard the supernatant. […]

| SMILES | phospholipase A2 inhibitory effect (notation "PLA2") |
| --- | --- |
| CN(C)CCCO[C@H]1CC[C@H]2[C@@H](CC[C@@H]3[C@@H]2CC[C@]2(C)C(NCCCN)CC[C@@H]32)C1 (stereo partly drawn) [Example 10, N-[(3β,5α)-3-[3-(dimethylamino)propoxy]estran.17-yl]-1,3-diaminopropane] | PLA2 |
| C[C@]12CC[C@H]3[C@@H](CC[C@H]4C[C@@H](OCCCN)CC[C@@H]43)[C@@H]1CCC2=O [Preparation 8, N-(3β,5α)-3-(3-aminopropoxy)estran-17-one] | PLA2 |
